From patent US8247211B2, “Glycopeptide antibiotics” (American Cyanamid Company, priority 2001, dated 2012)
Values after ≈ are worked out from the molar mass of the structure shown.

Legend:
Experiment in all cases: In vitro antibacterial evaluation: minimum inhibitory concentration (MIC), broth dilution method
Assay type in all cases: cell-based
Staphylococcus sp. = details: broth dilution, 18 hours at 35° C.
Procedure, shortened: (§1)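 Inoculum: 5×10^5 CFU/mL. Range: 64-0.06 μg/mL. Medium: Muller-Hinton II […]; NCCLS M7-A2 broth dilution. Endpoint: lowest concentration inhibiting growth. Strains include methicillin-, penicillin- and/or vancomycin-resistant clinical isolates.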

Escherichia coli = system: Escherichia coli
Procedure, shortened: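 Susceptibility determined by NCCLS-recommended broth dilution (M7-A2), Muller-Hinton II […]. Concentration span 64-0.06 μg/mL, inoculum 5×10^5 CFU/mL. Isolates include strains resistant to methicillin, penicillin and/or vancomycin.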

Enterococcus sp. = system: Enterococcus sp.
Procedure, shortened: as §1

Streptococcus sp. = system: Streptococcus sp.
Procedure, shortened: as §1

CC(c1ccccc1)C1NC(=O)CNC(=O)C(CO)NC(=O)C(C(O)C2CNC(=N)N2C2OC(CO)C(O)C(O)C2O)NC(=O)C(C(O)C2CNC(=N)N2)NC(=O)C(Cc2ccc(OC3OC(CO)C(OC4OC5COC(c6ccc7c(c6)OCCO7)OC5C(O)C4O)C(O)C3O)cc2)NC1=O (centres unmarked) [Example 149]
MIC Coagulase Negative Staphylococcus (GC 4547) (Staphylococcus sp.; 5×10^5 CFU/mL): 1 mg/L (≈ 0.694 µM) | MIC Coagulase Negative Staphylococcus (GC 4548) (Staphylococcus sp.; 5×10^5 CFU/mL): 1 mg/L (≈ 0.694 µM) | MIC Coagulase Negative Staphylococcus (GC 4549) (Staphylococcus sp.; 5×10^5 CFU/mL): 1 mg/L (≈ 0.694 µM) | MIC Coagulase Negative Staphylococcus (GC 4551) (Staphylococcus sp.; 5×10^5 CFU/mL): 1 mg/L (≈ 0.694 µM) | MIC Coagulase Negative Staphylococcus (GC 6257) (Staphylococcus sp.; 5×10^5 CFU/mL): 1 mg/L (≈ 0.694 µM) | MIC Staphylococcus aureus (ATCC 29213) (Staphylococcus sp.; 5×10^5 CFU/mL): 2 mg/L (≈ 1.39 µM) | MIC Staphylococcus aureus (GC 1131) (Staphylococcus sp.; 5×10^5 CFU/mL): 2 mg/L (≈ 1.39 µM) | MIC Staphylococcus aureus (GC 3051) (Staphylococcus sp.; 5×10^5 CFU/mL): 2 mg/L (≈ 1.39 µM) | MIC Staphylococcus aureus (GC 3053) (Staphylococcus sp.; 5×10^5 CFU/mL): 4 mg/L (≈ 2.78 µM) | MIC Staphylococcus aureus (GC 4541) (Staphylococcus sp.; 5×10^5 CFU/mL): 2 mg/L (≈ 1.39 µM) | MIC Staphylococcus aureus (GC 4542) (Staphylococcus sp.; 5×10^5 CFU/mL): 2 mg/L (≈ 1.39 µM) | MIC Staphylococcus aureus (GC 4544) (Staphylococcus sp.; 5×10^5 CFU/mL): 2 mg/L (≈ 1.39 µM) | MIC Staphylococcus aureus (GC 4545) (Staphylococcus sp.; 5×10^5 CFU/mL): 2 mg/L (≈ 1.39 µM) | MIC Staphylococcus aureus-SMITH (GC 4543) (Staphylococcus sp.; 5×10^5 CFU/mL): 2 mg/L (≈ 1.39 µM) | MIC Staphylococcus haemolyticus (GC 4546) (Staphylococcus sp.; 5×10^5 CFU/mL): 1 mg/L (≈ 0.694 µM) | MIC Staphylococcus aureus (ATCC 29213) (Staphylococcus sp.; strain ATCC 29213): 2 mg/L (≈ 1.39 µM) | MIC Staphylococcus aureus (GC 1131) (Staphylococcus sp.; strain GC 1131): 2 mg/L (≈ 1.39 µM) | MIC Staphylococcus aureus (GC 3051) (Staphylococcus sp.; strain GC 3051): 2 mg/L (≈ 1.39 µM) | MIC Staphylococcus aureus (GC 3053) (Staphylococcus sp.; strain GC 3053): 4 mg/L (≈ 2.78 µM) | MIC Staphylococcus aureus (GC 4541) (Staphylococcus sp.; strain GC 4541): 2 mg/L (≈ 1.39 µM) | MIC Staphylococcus aureus (GC 4542) (Staphylococcus sp.; strain GC 4542): 2 mg/L (≈ 1.39 µM) | MIC Staphylococcus aureus-SMITH (GC 4543) (Staphylococcus sp.; strain GC 4543): 2 mg/L (≈ 1.39 µM) | MIC Staphylococcus aureus (GC 4544) (Staphylococcus sp.; strain GC 4544): 2 mg/L (≈ 1.39 µM) | MIC Staphylococcus aureus (GC 4545) (Staphylococcus sp.; strain GC 4545): 2 mg/L (≈ 1.39 µM) | MIC Staphylococcus haemolyticus (GC 4546) (Staphylococcus sp.; strain GC 4546): 1 mg/L (≈ 0.694 µM) | MIC Coagulase Negative Staphylococcus (GC 4547) (Staphylococcus sp.; strain GC 4547): 1 mg/L (≈ 0.694 µM) | MIC Coagulase Negative Staphylococcus (GC 4548) (Staphylococcus sp.; strain GC 4548): 1 mg/L (≈ 0.694 µM) | MIC Coagulase Negative Staphylococcus (GC 4549) (Staphylococcus sp.; strain GC 4549): 1 mg/L (≈ 0.694 µM) | MIC Coagulase Negative Staphylococcus (GC 4551) (Staphylococcus sp.; strain GC 4551): 1 mg/L (≈ 0.694 µM) | MIC Coagulase Negative Staphylococcus (GC 6257) (Staphylococcus sp.; strain GC 6257): 1 mg/L (≈ 0.694 µM) | MIC Escherichia coli (ATCC 25922) (Escherichia coli; strain ATCC 25922): >64 mg/L | MIC Escherichia coli (GC 4559) (Escherichia coli; strain GC 4559): 64 mg/L (≈ 44.4 µM) | MIC Escherichi coli (GC 4560) (Escherichia coli; strain GC 4560): <0.5 mg/L | MIC Enterococcus faecalis (ATCC 29212) (Enterococcus sp.; strain ATCC 29212): 8 mg/L (≈ 5.55 µM) | MIC Enterococcus faecalis (GC 2242) (Enterococcus sp.; strain GC 2242): 8 mg/L (≈ 5.55 µM) | MIC Enterococcus faecium (GC 2243) (Enterococcus sp.; strain GC 2243): 8 mg/L (≈ 5.55 µM) | MIC Enterococcus faecalis (GC 2691) (Enterococcus sp.; strain GC 2691): 8 mg/L (≈ 5.55 µM) | MIC Enterococcus faecalis (GC 3059) (Enterococcus sp.; strain GC 3059): 8 mg/L (≈ 5.55 µM) | MIC Enterococcus faecalis (GC 4552) (Enterococcus sp.; strain GC 4552): 8 mg/L (≈ 5.55 µM) | MIC Enterococcus faecalis (GC 4553) (Enterococcus sp.; strain GC 4553): 8 mg/L (≈ 5.55 µM) | MIC Enterococcus faecalis (GC 4554) (Enterococcus sp.; strain GC 4554): 8 mg/L (≈ 5.55 µM) | MIC Enterococcus faecium (GC 4556) (Enterococcus sp.; strain GC 4556): 8 mg/L (≈ 5.55 µM) | MIC Enterococcus faecium (GC 4557) (Enterococcus sp.; strain GC 4557): 2 mg/L (≈ 1.39 µM) | MIC Enterococcus avium (GC 4558) (Enterococcus sp.; strain GC 4558): 8 mg/L (≈ 5.55 µM) | MIC Enterococcus faecalis (GC 6189) (Enterococcus sp.; strain GC 6189): 8 mg/L (≈ 5.55 µM) | MIC Streptococcus pneumoniae (ATCC 6301) (Streptococcus sp.; strain ATCC 6301): <0.5 mg/L | MIC Streptococcus pneumoniae (GC 1894) (Streptococcus sp.; strain GC 1894): <0.5 mg/L | MIC Streptococcus pyogenes (GC 4563) (Streptococcus sp.; strain GC 4563): <0.5 mg/L | MIC Streptococcus agalactiae (GC 4564) (Streptococcus sp.; strain GC 4564): 1 mg/L (≈ 0.694 µM) | MIC Streptococcus pneumoniae (GC 4565) (Streptococcus sp.; strain GC 4565): 2 mg/L (≈ 1.39 µM)
